# Reference: US11739093B2, “Substituted pyrazolopyrazines, imidazopyrazines and [1,2,4]triazolopyrazines as allosteric SHP2 inhibitors” (Revolution Medicines, Inc., priority 2017, dated 2023)
# Target: SHP2 (Homo sapiens (Human), UniProt Q06124)
# Experiment: SHP2 Allosteric Inhibition Assay
# Format: biochemical
# Details: 0.2 nM SHP2 with 0.5 μM Activating Peptide 1 or 2; surrogate substrate DiFMUP; prompt fluorescence, kinetic read
# Text: Without wishing to be bound by theory, SHP is allosterically activated through binding of bis-tyrosyl-phosphorylated peptides to its Src Homology 2 (SH2) domains. The latter activation step leads to the release of the auto-inhibitory interface of SHP2, which in turn renders the SHP2 protein tyrosine phosphatase (PTP) active and available for substrate recognition and reaction catalysis. The catalytic activity of SHP2 was monitored using the surrogate substrate DiFMUP in a prompt fluorescence assay format.
# The phosphatase reactions were performed at room temperature in 96-well black polystyrene plate, flat bottom, non-binding surface (Corning, Cat #3650) using a final reaction volume of 100 μL and the following assay buffer conditions: 50 mM HEPES, pH 7.2, 100 mM NaCl, 0.5 mM EDTA, 0.05% P-20, 1 mM DTT.
# The inhibition of SHP2 by compounds of the disclosure (concentrations varying from 0.00005-10 μM) was monitored using an assay in which 0.2 nM of SHP2 was incubated with 0.5 μM of Activating Peptide 1 (sequence: H2N-LN(pY)IDLDLV(dPEG8)LST(pY)ASINFQK-amide) or Activating Peptide 2 (sequence: H2N-LN(pY)AQLWHA(dPEG8)LTI(pY)ATIRRF-amide). After 30-60- minutes incubation at 25° C., the surrogate substrate DiFMUP (Invitrogen, Cat #D6567) was added to the reaction and activity was determined by a kinetic read using a microplate reader (Envision, Perkin-Elmer or Spectramax M5, Molecular Devices). The excitation and emission wavelengths were 340 nm and 450 nm, respectively. Initial rates were determined from a linear fit of the data, and the inhibitor dose response curves were analyzed using normalized IC50 regression curve fitting with control based normalization.
# Chain of SHP2 (Q06124 whole entry): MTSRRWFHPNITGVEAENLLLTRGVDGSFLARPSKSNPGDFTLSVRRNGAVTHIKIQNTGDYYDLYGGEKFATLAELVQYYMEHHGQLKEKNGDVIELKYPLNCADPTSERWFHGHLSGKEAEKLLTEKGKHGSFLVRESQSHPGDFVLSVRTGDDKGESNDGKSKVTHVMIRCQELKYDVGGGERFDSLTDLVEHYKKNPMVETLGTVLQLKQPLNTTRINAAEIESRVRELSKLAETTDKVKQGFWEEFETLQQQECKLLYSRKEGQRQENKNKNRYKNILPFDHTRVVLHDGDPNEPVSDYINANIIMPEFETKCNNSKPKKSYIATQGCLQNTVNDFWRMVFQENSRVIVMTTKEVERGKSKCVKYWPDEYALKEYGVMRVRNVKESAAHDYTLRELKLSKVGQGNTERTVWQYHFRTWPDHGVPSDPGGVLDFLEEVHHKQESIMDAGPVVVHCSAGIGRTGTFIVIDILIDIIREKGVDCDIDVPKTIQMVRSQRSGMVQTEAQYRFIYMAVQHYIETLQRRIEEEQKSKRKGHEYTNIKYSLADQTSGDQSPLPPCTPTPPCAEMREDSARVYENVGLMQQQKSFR
row,Structure (SMILES),IC50
1,"C[C@@H]1OCC2(CCN(c3ncc(Sc4ccnc(N)c4Cl)c4ncncc34)CC2)[C@@H]1N [Compound 16, (3S,4S)-8-{8-[(2-amino-3-chloropyridin-4-yl)sulfanyl]pyrido[4,3-d]pyrimidin-5-yl}-3-methyl-2-oxa-8-azaspiro[4.5]decan-4-amine]",83 nM
2,"Cc1nc(N2CCC3(CC2)CO[C@@H](C)[C@H]3N)c2nccn2c1Sc1ccnc(N)c1Cl [Compound 6, (3S,4S)-8-{5-[(2-amino-3-chloropyridin-4-yl)sulfanyl]-6-methylimidazo[1,2-a]pyrazin-8-yl}-3-methyl-2-oxa-8-azaspiro[4.5]decan-4-amine]",1100 nM
3,"Cc1nc(N2CCC(C)(N)CC2)c2cncn2c1-c1cccc(Cl)c1Cl [Compound 2, 1-(5-(2,3-dichlorophenyl)-6-methylimidazo[1,5-a]pyrazin-8-yl)-4-methylpiperidin-4-amine]",190 nM
4,"CC1(N)CCN(c2ncc(Sc3ccnc(N)c3Cl)c3nsnc23)CC1 [Compound 15, 4-((4-(4-amino-4-methylpiperidin-1-yl)-[1,2,5]thiadiazolo[3,4-c]pyridin-7-yl)thio)-3-chloropyridin-2-amine]",340 nM
